From ChEMBL document CHEMBL1123524, “Aminoglycoside antibiotics. 6. Chemical reactions of aminoglycosides with disodium carbenicillin” (1986)
Converted amounts (≈) assume the structure as drawn.

What was measured:
Escherichia coli [1] = experiment: Antibacterial activity expressed as MIC value was determined on Escherichia coli A-9632 organism; type: functional
Escherichia coli [2] = experiment: Antibacterial activity expressed as MIC value was determined on Escherichia coli A-22356 organism; type: functional
Escherichia coli [3] = experiment: Antibacterial activity expressed as MIC value was determined on Escherichia coli A-20665 organism; type: functional
Escherichia coli [4] = experiment: Antibacterial activity expressed as MIC value was determined on Escherichia coli A-20683 organism; type: functional
Escherichia coli [5] = experiment: Antibacterial activity expressed as MIC value was determined on Escherichia coli A-20697 organism; type: functional
Escherichia coli [6] = experiment: Antibacterial activity expressed as MIC value was determined on Escherichia coli A-20732 organism; type: functional
Escherichia coli [7] = experiment: Antibacterial activity expressed as MIC value was determined on Escherichia coli A-20895; type: functional
Escherichia coli [8] = experiment: Antibacterial activity expressed as MIC value was determined on Escherichia coli A-21218 organism; type: functional
Escherichia coli [9] = experiment: Antibacterial activity expressed as MIC value was determined on Escherichia coli A-22045 organism; type: functional
Enterobacter cloacae [10] = experiment: Antibacterial activity expressed as MIC value was determined on Enterobacter cloacae A-21006 organism; type: functional
Enterobacter cloacae [11] = experiment: Antibacterial activity expressed as MIC value was determined on Enterobacter cloacae A-21136 organism; type: functional
Enterobacter cloacae [12] = experiment: Antibacterial activity expressed as MIC value was determined on Enterobacter cloacae A-9656 organism; type: functional
Klebsiella pneumoniae = experiment: Antibacterial activity expressed as MIC value was determined on Klebsiella pneumonia A-20468 organism; type: functional
Providencia rettgeri [13] = experiment: ntibacterial activity expressed as MIC value was determined on Proteus rettgeri A-21207 organism; type: functional
Providencia stuartii [14] = experiment: Antibacterial activity expressed as MIC value was determined on Proteus stuartii A-21210 organism; type: functional
Providencia rettgeri [15] = experiment: (§1) Antibacterial activity expressed as MIC value was determined on Proteus rettgeri A-9637 organism; type: functional
Proteus mirabilis = experiment: Antibacterial activity expressed as MIC value was determined on Proteus mirabilis A-9900 organism; type: functional
Pseudomonas aeruginosa [16] = experiment: Antibacterial activity expressed as MIC value was determined on Pseudomonas aeruginosa A-20601 organism; type: functional
Pseudomonas aeruginosa [17] = experiment: Antibacterial activity expressed as MIC value was determined on Pseudomonas aeruginosa A-20653 organism; type: functional
Pseudomonas aeruginosa [18] = experiment: Antibacterial activity expressed as MIC value was determined on Pseudomonas aeruginosa A-20717 organism; type: functional
Pseudomonas aeruginosa [19] = experiment: Antibacterial activity expressed as MIC value was determined on Pseudomonas aeruginosa A-20897 organism; type: functional
Pseudomonas aeruginosa [20] = experiment: Antibacterial activity expressed as MIC value was determined on Pseudomonas aeruginosa A-21294 organism; type: functional
Pseudomonas aeruginosa [21] = experiment: Antibacterial activity expressed as MIC value was determined on Pseudomonas aeruginosa A-21509 organism; type: functional
Pseudomonas aeruginosa [22] = experiment: Antibacterial activity expressed as MIC value was determined on Pseudomonas aeruginosa A-22233 organism; type: functional
Pseudomonas aeruginosa [23] = experiment: Antibacterial activity expressed as MIC value was determined on Pseudomonas aeruginosa A-9834A organism; type: functional
Serratia marcescens = experiment: Antibacterial activity expressed as MIC value was determined on Serratia marcescens A-20019 organism; type: functional
Staphylococcus aureus [24] = experiment: Antibacterial activity expressed as MIC value was determined on Staphylococcus aureus A-20240 organism; type: functional
Staphylococcus aureus [25] = experiment: Antibacterial activity expressed as MIC value was determined on Staphylococcus aureus A-21978 organism; type: functional
Staphylococcus aureus [26] = experiment: Antibacterial activity expressed as MIC value was determined on Staphylococcus aureus A-22058 organism; type: functional
Staphylococcus aureus [27] = experiment: Antibacterial activity expressed as MIC value was determined on Staphylococcus aureus A-22210 organism; type: functional
Staphylococcus aureus [28] = experiment: Antibacterial activity expressed as MIC value was determined on Staphylococcus aureus A-22231 organism; type: functional
Staphylococcus aureus [29] = experiment: Antibacterial activity expressed as MIC value was determined on Staphylococcus aureus A-9537 organism; type: functional
Providencia stuartii [30] = experiment: Antibacterial activity expressed as MIC value was determined on Proteus stuartii A-20894 organism; type: functional
Pseudomonas aeruginosa [31] = experiment: Antibacterial activity expressed as MIC value was determined on Pseudomonas aeruginosa A-20741 organism; type: functional
Enterobacter cloacae [32] = experiment: Antibacterial activity expressed as MIC value was determined on Enterobacter cloacae A-20364 organism; type: functional
Pseudomonas aeruginosa [33] = experiment: Antibacterial activity expressed as MIC value was determined on Pseudomonas aeruginosa A-21508 organism; type: functional
Escherichia coli [34] = experiment: Antibacterial activity expressed as MIC value was determined on Escherichia coli A-20895 organism; type: functional
Pseudomonas aeruginosa [35] = experiment: Antibacterial activity expressed as MIC value was determined on Pseudomonas aeruginosa A-9834A organismA-; type: functional, organism-based
Pseudomonas aeruginosa [36] = experiment: Antibacterial activity expressed as MIC value was determined on Pseudomonas aeruginosa A-20601; type: functional, organism-based
Providencia rettgeri [37] = experiment: Antibacterial activity expressed as MIC value was determined on Proteus rettgeri A-21207 organism; type: functional
Providencia rettgeri [38] = experiment: as §1; type: functional; remark: listed apart in the source
Staphylococcus aureus [39] = experiment: Antibacterial activity expressed as MIC value was determined on; type: functional, organism-based

Compound | MIC (Escherichia coli [1]) [µg/mL] | MIC (Escherichia coli [4]) [µg/mL] | MIC (Escherichia coli [5]) [µg/mL] | MIC (Escherichia coli [6]) [µg/mL] | MIC (Escherichia coli [8]) [µg/mL] | MIC (Escherichia coli [9]) [µg/mL] | MIC (Klebsiella pneumoniae) [µg/mL] | MIC (Providencia stuartii [14]) [µg/mL] | MIC (Proteus mirabilis) [µg/mL] | MIC (Pseudomonas aeruginosa [18]) [µg/mL] | MIC (Pseudomonas aeruginosa [19]) [µg/mL] | MIC (Pseudomonas aeruginosa [20]) [µg/mL] | MIC (Pseudomonas aeruginosa [21]) [µg/mL] | MIC (Serratia marcescens) [µg/mL] | MIC (Staphylococcus aureus [24]) [µg/mL] | MIC (Staphylococcus aureus [25]) [µg/mL] | MIC (Staphylococcus aureus [27]) [µg/mL] | MIC (Staphylococcus aureus [28]) [µg/mL] | MIC (Staphylococcus aureus [29]) [µg/mL] | MIC (Providencia stuartii [30]) [µg/mL] | further results
CC1(C)S[C@@H]2[C@H](NC(=O)C(C(=O)O)c3ccccc3)C(=O)N2[C@H]1C(=O)O (stereo not given in full) [CARBENICILLIN] | 8 (≈ 21.1 µM) | > 125 | 32 (≈ 84.6 µM) | > 125 | 32 (≈ 84.6 µM) | 32 (≈ 84.6 µM) | > 125 | 1 (≈ 2.64 µM) | 0.5 (≈ 1.32 µM) | > 125 | > 125 | > 125 | > 125 | 16 (≈ 42.3 µM) | 8 (≈ 21.1 µM) | > 125 | > 125 | 2 (≈ 5.29 µM) | 1 (≈ 2.64 µM) | 8 (≈ 21.1 µM) | MIC (Escherichia coli [2]): 4 µg/mL (≈ 10.6 µM); MIC (Escherichia coli [3]): 8 µg/mL (≈ 21.1 µM); MIC (Escherichia coli [7]): 63 µg/mL (≈ 166 µM); MIC (Enterobacter cloacae [10]): > 125 µg/mL; MIC (Enterobacter cloacae [11]): > 125 µg/mL; MIC (Enterobacter cloacae [12]): 32 µg/mL (≈ 84.6 µM); MIC (Providencia rettgeri [13]): 16 µg/mL (≈ 42.3 µM); MIC (Providencia rettgeri [15]): 0.5 µg/mL (≈ 1.32 µM); MIC (Pseudomonas aeruginosa [16]): 125 µg/mL (≈ 330 µM); MIC (Pseudomonas aeruginosa [17]): 125 µg/mL (≈ 330 µM); MIC (Pseudomonas aeruginosa [22]): > 125 µg/mL; MIC (Pseudomonas aeruginosa [23]): 32 µg/mL (≈ 84.6 µM); MIC (Staphylococcus aureus [26]): 4 µg/mL (≈ 10.6 µM); MIC (Pseudomonas aeruginosa [31]): 125 µg/mL (≈ 330 µM); MIC (Enterobacter cloacae [32]): > 125 µg/mL; MIC (Pseudomonas aeruginosa [33]): > 125 µg/mL
NC[C@H]1O[C@H](O[C@H]2[C@H](O)[C@@H](O[C@H]3O[C@H](CO)[C@@H](O)[C@H](N)[C@H]3O)[C@H](N)C[C@@H]2N)[C@H](O)[C@@H](O)[C@@H]1O [KANAMYCIN] | 2 (≈ 4.13 µM) | > 125 | 2 (≈ 4.13 µM) | 63 (≈ 130 µM) | 32 (≈ 66 µM) | 4 (≈ 8.26 µM) | 0.5 (≈ 1.03 µM) | 0.5 (≈ 1.03 µM) | 2 (≈ 4.13 µM) | 32 (≈ 66 µM) | > 125 | 63 (≈ 130 µM) | > 125 | 1 (≈ 2.06 µM) | > 125 | > 125 | > 125 | 8 (≈ 16.5 µM) | 0.05 (≈ 0.103 µM) | 4 (≈ 8.26 µM) | MIC (Escherichia coli [2]): 2 µg/mL (≈ 4.13 µM); MIC (Escherichia coli [3]): > 125 µg/mL; MIC (Escherichia coli [34]): 2 µg/mL (≈ 4.13 µM); MIC (Enterobacter cloacae [10]): > 125 µg/mL; MIC (Enterobacter cloacae [11]): 32 µg/mL (≈ 66 µM); MIC (Enterobacter cloacae [12]): 1 µg/mL (≈ 2.06 µM); MIC (Providencia rettgeri [13]): 2 µg/mL (≈ 4.13 µM); MIC (Providencia rettgeri [15]): 0.5 µg/mL (≈ 1.03 µM); MIC (Pseudomonas aeruginosa [16]): 32 µg/mL (≈ 66 µM); MIC (Pseudomonas aeruginosa [17]): > 125 µg/mL; MIC (Pseudomonas aeruginosa [22]): > 125 µg/mL; MIC (Pseudomonas aeruginosa [23]): 63 µg/mL (≈ 130 µM); MIC (Staphylococcus aureus [26]): 125 µg/mL (≈ 258 µM); MIC (Pseudomonas aeruginosa [31]): > 125 µg/mL; MIC (Enterobacter cloacae [32]): > 125 µg/mL; MIC (Pseudomonas aeruginosa [33]): > 125 µg/mL
NC[C@H]1O[C@H](O[C@H]2[C@H](O)[C@@H](O[C@H]3O[C@H](CO)[C@@H](O)[C@H](N)[C@H]3O)[C@H](N)C[C@@H]2N)[C@H](N)C[C@@H]1O [TOBRAMYCIN] | 0.25 (≈ 0.535 µM) | 16 (≈ 34.2 µM) | 0.13 (≈ 0.278 µM) | 8 (≈ 17.1 µM) | 8 (≈ 17.1 µM) | 4 (≈ 8.56 µM) | 0.06 (≈ 0.128 µM) | 2 (≈ 4.28 µM) | 0.5 (≈ 1.07 µM) | 0.13 (≈ 0.278 µM) | 125 (≈ 267 µM) | 16 (≈ 34.2 µM) | 4 (≈ 8.56 µM) | 2 (≈ 4.28 µM) | 0.13 (≈ 0.278 µM) | 32 (≈ 68.4 µM) | 8 (≈ 17.1 µM) | 16 (≈ 34.2 µM) | 0.03 (≈ 0.0642 µM) | 16 (≈ 34.2 µM) | MIC (Escherichia coli [2]): 0.25 µg/mL (≈ 0.535 µM); MIC (Escherichia coli [3]): 1 µg/mL (≈ 2.14 µM); MIC (Escherichia coli [34]): 0.5 µg/mL (≈ 1.07 µM); MIC (Enterobacter cloacae [10]): 1 µg/mL (≈ 2.14 µM); MIC (Enterobacter cloacae [11]): 16 µg/mL (≈ 34.2 µM); MIC (Enterobacter cloacae [12]): 0.25 µg/mL (≈ 0.535 µM); MIC (Providencia rettgeri [13]): 32 µg/mL (≈ 68.4 µM); MIC (Providencia rettgeri [15]): 0.13 µg/mL (≈ 0.278 µM); MIC (Pseudomonas aeruginosa [16]): 0.13 µg/mL (≈ 0.278 µM); MIC (Pseudomonas aeruginosa [17]): 0.13 µg/mL (≈ 0.278 µM); MIC (Pseudomonas aeruginosa [22]): 125 µg/mL (≈ 267 µM); MIC (Pseudomonas aeruginosa [23]): 0.13 µg/mL (≈ 0.278 µM); MIC (Staphylococcus aureus [26]): 32 µg/mL (≈ 68.4 µM); MIC (Pseudomonas aeruginosa [31]): > 125 µg/mL; MIC (Enterobacter cloacae [32]): 0.5 µg/mL (≈ 1.07 µM); MIC (Pseudomonas aeruginosa [33]): 0.06 µg/mL (≈ 0.128 µM)
GENTAMICIN | 0.25 | 32 | 0.25 | 16 | 0.25 | 63 | 0.25 | 1 | 1 | 4 | > 125 | 1 | 16 | 1 | 0.13 | 0.25 | 32 | 0.13 | 0.06 | 125 | MIC (Escherichia coli [34]): 32 µg/mL; MIC (Pseudomonas aeruginosa [35]): 0.25 µg/mL; MIC (Pseudomonas aeruginosa [36]): > 125 µg/mL; MIC (Providencia rettgeri [37]): 8 µg/mL; MIC (Providencia rettgeri [38]): 0.06 µg/mL; MIC (Staphylococcus aureus [39]): 0.13 µg/mL; MIC (Pseudomonas aeruginosa [31]): > 125 µg/mL
